Measurements as given in BigSolDB 2.1.

CN(C/C=C/C#CC(C)(C)C)Cc1cccc2ccccc12.Cl
solubility (mole fraction)
Details | 283.15 K | 288.15 K | 293.15 K | 298.15 K | 303.15 K | 308.15 K | 313.15 K | 318.15 K | 323.15 K
in DMSO | – | – | 0.0199 | 0.0226 | 0.0252 | 0.0284 | 0.0319 | 0.0354 | 0.0401
in acetonitrile | 0.0013 | 0.00153 | 0.00179 | 0.00213 | 0.00254 | 0.00304 | 0.00377 | 0.00455 | 0.00532
in cyclohexanol | – | – | – | – | 0.0381 | 0.048 | 0.0556 | 0.0654 | 0.0774
in ethanol | 0.0198 | 0.0222 | 0.0245 | 0.0298 | 0.0342 | 0.0414 | 0.0493 | 0.0572 | 0.0678
in isobutanol | 0.0101 | 0.0128 | 0.0159 | 0.0213 | 0.0276 | 0.0354 | 0.045 | 0.0559 | 0.0693
in isooctanol | 0.00196 | 0.00403 | 0.00498 | 0.00649 | 0.00867 | 0.0109 | 0.0143 | 0.0178 | 0.0221
in isopentanol | 0.0073 | 0.00942 | 0.0118 | 0.0149 | 0.0189 | 0.0242 | 0.0298 | 0.0389 | 0.0493
in isopropanol | 0.0031 | 0.00391 | 0.00487 | 0.00627 | 0.00831 | 0.0106 | 0.0144 | 0.0183 | 0.0245
in n-butanol | 0.0123 | 0.0168 | 0.0217 | 0.0251 | 0.0313 | 0.0377 | 0.0466 | 0.0568 | 0.0685
in n-hexanol | 0.00683 | 0.00916 | 0.0115 | 0.0148 | 0.0185 | 0.0229 | 0.0291 | 0.0373 | 0.0469
in n-pentanol | 0.0158 | 0.0208 | 0.0255 | 0.0304 | 0.0357 | 0.0428 | 0.0511 | 0.0601 | 0.0697
in n-propanol | 0.0194 | 0.0214 | 0.0233 | 0.027 | 0.0351 | 0.0427 | 0.0519 | 0.0615 | 0.0735
in sec-butanol | 0.0037 | 0.0047 | 0.00608 | 0.0077 | 0.00999 | 0.0133 | 0.0176 | 0.0227 | 0.0288
